This passage reports IC50 results from US20120121591A1 (priority 2009, published 2012).

Like-named read-outs stand apart in the source and are kept apart here.

Usually IC50 stands for the concentration needed to halve the response being measured.

What all share (type): cell-based
In one assay the target is hKv1.3 (Homo sapiens, UniProt P22001). Description: cell-based. The note with it: Kv1.3 (IWQ) IC50 (nM, Avg).
For assay [1], the system named is IL-2 secretion from T cells in human whole blood.
Assay [2] deals with IFN-g secretion from T cells in human whole blood. The conditions noted are these: read-out: WB (IFNg) IC50 (nM, Avg).
The mark [3] stands for this setting: read-out: WB (IL-2) IC50 (nM, Avg).

Sequence of hKv1.3 (P22001 whole entry): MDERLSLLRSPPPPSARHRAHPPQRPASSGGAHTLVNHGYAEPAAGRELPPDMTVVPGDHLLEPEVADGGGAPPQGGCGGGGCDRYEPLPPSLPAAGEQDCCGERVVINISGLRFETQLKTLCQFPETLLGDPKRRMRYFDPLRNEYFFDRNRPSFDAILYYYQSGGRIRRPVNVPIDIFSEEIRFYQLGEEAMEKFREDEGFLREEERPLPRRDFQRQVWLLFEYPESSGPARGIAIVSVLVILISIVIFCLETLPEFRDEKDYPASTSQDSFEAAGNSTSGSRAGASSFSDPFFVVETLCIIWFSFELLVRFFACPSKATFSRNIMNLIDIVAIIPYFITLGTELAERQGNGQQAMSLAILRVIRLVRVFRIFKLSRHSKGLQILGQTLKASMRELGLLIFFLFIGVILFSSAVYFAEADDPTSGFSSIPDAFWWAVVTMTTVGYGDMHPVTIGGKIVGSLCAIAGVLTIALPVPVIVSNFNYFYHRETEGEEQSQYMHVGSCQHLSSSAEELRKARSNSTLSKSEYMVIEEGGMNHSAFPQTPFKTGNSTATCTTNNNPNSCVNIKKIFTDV

As to `CCCC[C@@H]1NC(=O)[C@H](CO)NC(=O)[C@H](Cc2c[nH]cn2)NC(=O)[C@H](CCCCN)NC(=O)[C@@H]2CSSC[C@@H]3NC(=O)[C@H]([C@@H](C)O)NC(=O)[C@H](CCCNC(=N)N)NC(=O)[C@H](CCCNC(=N)N)NC(=O)[C@H](CSSC[C@H](NC(=O)[C@H](CCCNC(=N)N)NC(=O)[C@H](CO)NC(=O)[C@H](CCCCN)NC(=O)[C@@H]4CCCN4C(=O)[C@H]([C@@H](C)CC)NC(=O)[C@H]([C@@H](C)O)NC(=O)[C@H](CC(=O)O)NC(=O)[C@H]([C@@H](C)CC)NC(=O)[C@@H](NC(=O)[C@H](CO)NC(=O)[C@@H](N)CCCNC(=N)N)CSSC[C@@H](C(N)=O)NC(=O)[C@H]([C@@H](C)O)NC(=O)CNC3=O)C(=O)N[C@@H]([C@@H](C)O)C(=O)N[C@@H](C)C(=O)N[C@@H](Cc3ccccc3)C(=O)N[C@@H](CCCCN)C(=O)N2)NC(=O)[C@H](Cc2ccccc2)NC(=O)[C@H](CO)NC(=O)[C@H](CC(C)C)NC(=O)[C@H](CCCNC(=N)N)NC(=O)[C@H](Cc2ccc(O)cc2)NC(=O)[C@H](CCCCN)NC1=O` [[Lys16, Nle21,Arg30]ShK-amide], the concentration for half-maximal inhibition (IC50) at hKv1.3 was found to be 0.423 nM; in assay [1] (setting [3]), 0.953 nM; in assay [2], 1.9 nM.
In the case of `CCCC[C@@H]1NC(=O)[C@H](CO)NC(=O)[C@H](Cc2c[nH]cn2)NC(=O)[C@H](CCCCN)NC(=O)[C@@H]2CSSC[C@@H]3NC(=O)[C@H]([C@@H](C)O)NC(=O)[C@H](CCC(=O)O)NC(=O)[C@H](CCCNC(=N)N)NC(=O)[C@H](CSSC[C@H](NC(=O)[C@H](CCCNC(=N)N)NC(=O)[C@H](CO)NC(=O)[C@H](CCCCN)NC(=O)[C@@H]4CCCN4C(=O)[C@H]([C@@H](C)CC)NC(=O)[C@H]([C@@H](C)O)NC(=O)[C@H](CC(=O)O)NC(=O)[C@H]([C@@H](C)CC)NC(=O)[C@@H](NC(=O)[C@H](CO)NC(=O)[C@@H](N)CCCNC(=N)N)CSSC[C@@H](C(N)=O)NC(=O)[C@H]([C@@H](C)O)NC(=O)CNC3=O)C(=O)N[C@@H]([C@@H](C)O)C(=O)N[C@@H](C)C(=O)N[C@@H](Cc3ccccc3)C(=O)N[C@@H](CCCCN)C(=O)N2)NC(=O)[C@H](Cc2ccccc2)NC(=O)[C@H](CO)NC(=O)[C@H](CC(C)C)NC(=O)[C@H](CCCNC(=N)N)NC(=O)[C@H](Cc2ccc(O)cc2)NC(=O)[C@H](CCCCN)NC1=O` [[Lys16, Nle21,Glu30]ShK-amide], the IC50 against hKv1.3 was found to be 1.88 nM; in assay [1] (setting [3]) it was 3.18 nM; in assay [2], 5.03 nM.
For the compound `CCCC[C@@H]1NC(=O)[C@H](CO)NC(=O)[C@H](Cc2c[nH]cn2)NC(=O)[C@H](CCCCN)NC(=O)[C@@H]2CSSC[C@@H]3NC(=O)[C@H]([C@@H](C)O)NC(=O)[C@H](CCCCN)NC(=O)[C@H](CCCNC(=N)N)NC(=O)[C@H](CSSC[C@H](NC(=O)[C@H](CCCNC(=N)N)NC(=O)[C@H](CO)NC(=O)[C@H](CCCCN)NC(=O)[C@@H]4CCCN4C(=O)[C@H]([C@@H](C)CC)NC(=O)[C@H]([C@@H](C)O)NC(=O)[C@H](CC(=O)O)NC(=O)[C@H]([C@@H](C)CC)NC(=O)[C@@H](NC(=O)[C@H](CO)NC(=O)[C@@H](N)CCCNC(=N)N)CSSC[C@@H](C(=O)N[C@@H](CC(=O)O)C(N)=O)NC(=O)[C@H]([C@@H](C)O)NC(=O)CNC3=O)C(=O)N[C@@H]([C@@H](C)O)C(=O)N[C@@H](C)C(=O)N[C@@H](Cc3ccccc3)C(=O)N[C@@H](CCCCN)C(=O)N2)NC(=O)[C@H](Cc2ccccc2)NC(=O)[C@H](CO)NC(=O)[C@H](CC(C)C)NC(=O)[C@H](CCCNC(=N)N)NC(=O)[C@H](Cc2ccc(O)cc2)NC(=O)[C@H](CCCCN)NC1=O` [[Lys16, Nle21]ShK-Asp-amide], the 50% inhibitory concentration (IC50) at hKv1.3 was found to be 0.39 nM; in assay [1] (setting [3]) it was 0.295 nM; in assay [2], 0.403 nM.
Take `CCCC[C@@H]1NC(=O)[C@H](CO)NC(=O)[C@H](Cc2c[nH]cn2)NC(=O)[C@H](CCCCN)NC(=O)[C@@H]2CSSC[C@@H]3NC(=O)[C@H]([C@@H](C)O)NC(=O)[C@H](CCCCN)NC(=O)[C@H](CCCNC(=N)N)NC(=O)[C@H](CSSC[C@H](NC(=O)[C@H](CCCNC(=N)N)NC(=O)[C@H](CO)NC(=O)[C@H](CCCCN)NC(=O)[C@@H]4CCCN4C(=O)[C@H]([C@@H](C)CC)NC(=O)[C@H]([C@@H](C)O)NC(=O)[C@H](CC(=O)O)NC(=O)[C@H]([C@@H](C)CC)NC(=O)[C@@H](NC(=O)[C@H](CO)NC(=O)[C@@H](N)CCCNC(=N)N)CSSC[C@@H](C(N)=O)NC(=O)[C@H]([C@@H](C)O)NC(=O)CNC3=O)C(=O)N[C@@H]([C@@H](C)O)C(=O)N[C@@H](C)C(=O)N[C@@H](Cc3ccccc3)C(=O)N[C@@H](CCCCN)C(=O)N2)NC(=O)[C@H](Cc2ccccc2)NC(=O)[C@H](CO)NC(=O)[C@H](CC(C)C)NC(=O)[C@H](CCCNC(=N)N)NC(=O)[C@H](Cc2ccc(O)cc2)NC(=O)[C@H](CCCCN)NC1=O` [[Lys16, Nle21]ShK-amide]: the 50% inhibitory concentration (IC50) came to 0.153 nM against hKv1.3, 0.82 nM in assay [1] (read-out: WB (IL-2) IC50), 0.823 nM in assay [1] (setting [3]) and 1.1 nM in assay [2].
`CCC[C@@H]1NC(=O)[C@H](CO)NC(=O)[C@H](Cc2c[nH]cn2)NC(=O)[C@H](CCCCN)NC(=O)[C@@H]2CSSC[C@@H]3NC(=O)[C@H]([C@@H](C)O)NC(=O)[C@H](CCCCN)NC(=O)[C@H](CCCNC(=N)N)NC(=O)[C@H](CSSC[C@H](NC(=O)[C@H](CCCNC(=N)N)NC(=O)[C@H](CO)NC(=O)[C@H](CCCCN)NC(=O)[C@@H]4CCCN4C(=O)[C@H]([C@@H](C)CC)NC(=O)[C@H]([C@@H](C)O)NC(=O)[C@H](CC(=O)O)NC(=O)[C@H]([C@@H](C)CC)NC(=O)[C@@H](NC(=O)[C@H](CO)NC(=O)[C@@H](N)CCCNC(=N)N)CSSC[C@@H](C(=O)N[C@@H](CCC(=O)O)C(N)=O)NC(=O)[C@H]([C@@H](C)O)NC(=O)CNC3=O)C(=O)N[C@@H]([C@@H](C)O)C(=O)N[C@@H](C)C(=O)N[C@@H](Cc3ccccc3)C(=O)N[C@@H](CCCCN)C(=O)N2)NC(=O)[C@H](Cc2ccccc2)NC(=O)[C@H](CO)NC(=O)[C@H](CC(C)C)NC(=O)[C@H](CCCNC(=N)N)NC(=O)[C@H](Cc2ccc(O)cc2)NC(=O)[C@H](CCCCN)NC1=O` [[Lys16, Nva21]ShK-Glu-amide]: the IC50 on hKv1.3 worked out at 0.21 nM; in assay [1] (setting [3]) it was 0.218 nM; in assay [2] it was 0.353 nM.
Regarding `CCC[C@@H]1NC(=O)[C@H](CO)NC(=O)[C@H](Cc2c[nH]cn2)NC(=O)[C@H](CCCCN)NC(=O)[C@@H]2CSSC[C@@H]3NC(=O)[C@H]([C@@H](C)O)NC(=O)[C@H](CCCCN)NC(=O)[C@H](CCCNC(=N)N)NC(=O)[C@H](CSSC[C@H](NC(=O)[C@H](CCCNC(=N)N)NC(=O)[C@H](CO)NC(=O)[C@H](CCCCN)NC(=O)[C@@H]4CCCN4C(=O)[C@H]([C@@H](C)CC)NC(=O)[C@H]([C@@H](C)O)NC(=O)[C@H](CC(=O)O)NC(=O)[C@H]([C@@H](C)CC)NC(=O)[C@@H](NC(=O)[C@H](CO)NC(=O)[C@@H](N)CCCNC(=N)N)CSSC[C@@H](C(N)=O)NC(=O)[C@H]([C@@H](C)O)NC(=O)CNC3=O)C(=O)N[C@@H]([C@@H](C)O)C(=O)N[C@@H](C)C(=O)N[C@@H](Cc3ccccc3)C(=O)N[C@@H](CCCCN)C(=O)N2)NC(=O)[C@H](Cc2ccccc2)NC(=O)[C@H](CO)NC(=O)[C@H](CC(C)C)NC(=O)[C@H](CCCNC(=N)N)NC(=O)[C@H](Cc2ccc(O)cc2)NC(=O)[C@H](CCCCN)NC1=O` [[Lys16, Nva21]ShK-amide], the IC50 worked out at 0.47 nM against hKv1.3, 0.486 nM in assay [1] (setting [3]) and 0.932 nM in assay [2].
